Test results taken from patent publication US7129366B2, “Group of a novel anti-cancer compounds with specific structure” (Yang's Biochem Co. Ltd., priority 2001, dated 2006).
Where two headings read alike, the source gives them in different places. Marks after values point to notes of the source that are not given here.

Experiments:
serum hemolysinogenesis = type: in vivo, ICR strain mice
Experimental: The method of administration in each group was the same as above (phagocytic function). However, on the 6th day after administration, 0.2 ml 3:5 (V/V) sheep red blood cell (RBC) suspension was injected i.p. into each mouse. 4 days later (day 10), blood was drawn from all animals and serum was prepared and then diluted 600 times. 1 ml diluted serum was mixed with 0.5 ml 10% sheep RBC suspension. N.S. was used as blank control. All samples were incubated at 37° C. for 30 minutes, and centrifuged (2000 rev/min) for 5 minutes. The supernatant was collected for measurement of OD540 and HC50 was calculated.

UVB-induced skin cancer = assay: Prevention of ultraviolet B ray (UVB)-induced skin cancer, DMBA-initiated; type: in vivo, SKH-1 hairless mice; settings: topical 200 μl of 10% Sample solution once a day, UVB 180 mJ/cm^2 per day, end of 30 weeks
Experimental: N-(12-methyl-tridecyl)hydrazine hydrochloride (Sample) was resolved with 0.8% Tween resulting in a final concentration of 10%.
Forty female SKH-1 hairless mice were randomly divided into control and test groups of 20 each. Each mouse in both groups was treated topically once with DMBA (5.12 μg dissolved in 200 μl acetone solution) to achieve tumor initiation. One week later (day 8), animals in test group started to receive topical application of 200 μl. Sample solution once a day. The control group received 200 μl Tween 80 solvent instead every day. Thirty minutes after the application, animals in both groups were exposed to UVB (290–320 nm) radiation at the dosage of 180 mJ/cm^2 per day to induce growth of tumor. The animals were evaluated for tumor development at the end of 30 weeks.

[1] = test system: reticuloendothelial system; assay: Phagocytic function of reticuloendothelial system, serum clearance index of carbon grain; type: in vivo, ICR strain mice
Experimental: One group was given N.S. at 20 ml/kg i.g. as a normal control. A positive control group was given CTX i.g. at 25 mg/kg on day 1 and 6.

mouse sarcoma S180 = assay: Mouse sarcoma S180 model, inhibition of tumor growth
Experimental: 50 female ICR strain mice, weighing 19–22 g, were randomly divided into 5 groups of 10 each. S180 sarcoma mass (about 2 mm^3 each) was transplanted subcutaneously into the right armpits of all animals following standard procedure. 3 test groups were given N-(12-methyl-tridecyl)hydrazine hydrochloride (Sample) at 0.1, 0.2, and 0.4 g/kg intragastrically (i.g.) daily for 11 days. The positive control group was given a single dose of cytoxan (CTX) i.g. (25 mg/kg) on day 1. The negative control group was given 0.8% Tween 80 at 0.4 ml/10 g daily for 11 days. On the 12th day, all mice were sacrificed and the tumor was isolated and weighed. The rate of inhibition of tumor growth was calculated and subject to t-test.

[2] = test system: immune organs (thymus and pancreas); assay: Weights of immune organs (organ indices); type: in vivo, ICR strain mice
Text: The mice were sacrificed after the Serum hemolysinogenesis test above and the thymus and pancreas were collected and weighed.

[3] = test system: body skin ulcerous wounds (inflammation); assay: Topical application to patients with body skin ulcerous wounds; type: in vivo, human; settings: oil state applied directly on inflamed surface
Text: 12-Methyl-2-tetradecenoic acid in an oil state was directly applied on the inflamed surface of patients with body skin ulcerous wounds.

[4] = test system: oral adnoma and tongue cancer; assay: Topical application to patients of oral adnoma and tongue cancer; type: in vivo, human; settings: oil state applied directly on focus surface, about one week later
Text: 12-Methyl-2-tetradecenoic acid in an oil state was directly applied on the focus surface of oral or tongue to patients of oral adnoma and tongue cancer.

[5] = Sample 0.1 g/kg i.g. + CTX 25 mg/kg
[6] = Sample 0.4 g/kg i.g. + CTX 25 mg/kg
[7] = normal mice, Sample 0.4 g/kg i.g.

CC(C)CCCCCCCCCCCNN.Cl [Compound 45, N-(12-methyl-tridecyl)hydrazine hydrochloride]
HC50 (X ± SD) (serum hemolysinogenesis; [5]): 22.45 ± 4.12 | HC50 (X ± SD) (serum hemolysinogenesis; [6]): 24.01 ± 3.87 | HC50 (X ± SD) (serum hemolysinogenesis; normal mouse, Sample 0.4 g/kg i.g.): 32.08 ± 5.06 | effects on serum hemolysinogenesis (serum hemolysinogenesis; normal or immune-compromised mouse): no obvious effects | average size of cancer smaller than control (UVB-induced skin cancer): 85% | reduction in tumor incidence compared to control group (UVB-induced skin cancer): 45% | effect on the clearance of Carbon grain ([1]; CTX-treated mouse, Sample 100 and 400 mg/kg): improve the clearance of Carbon grain in CTX-treated mouse to a certain extent | K (X ± SD), serum clearance index of carbon grain ([1]; Sample 100 mg/kg i.g. daily for 9 days + CTX 25 mg/kg on day 1 and 6): 0.0433 ± 0.0401 | K (X ± SD), serum clearance index of carbon grain ([1]; Sample 400 mg/kg i.g. daily for 9 days + CTX 25 mg/kg on day 1 and 6): 0.0603 ± 0.0371 | effect on the Clearance Index of Carbon grain ([1]; normal mouse (P1,3>0.05)): no obvious effect | K (X ± SD), serum clearance index of carbon grain ([1]; normal mouse, Sample 400 mg/kg i.g. daily for 9 days): 0.0792 ± 0.0230 | Inhibition Rate (mouse sarcoma S180; Sample 100 mg/kg i.g. daily for 11 days): 36.36% | Tumor Weight (X ± SD) (mouse sarcoma S180; Sample 100 mg/kg i.g. daily for 11 days, 12th day): 0.70 ± 0.12^b g | Inhibition Rate (mouse sarcoma S180; Sample 200 mg/kg i.g. daily for 11 days): 62.73% | Tumor Weight (X ± SD) (mouse sarcoma S180; Sample 200 mg/kg i.g. daily for 11 days, 12th day): 0.41 ± 0.10^b g | Inhibition Rate (mouse sarcoma S180; Sample 400 mg/kg i.g. daily for 11 days): 70.00% | Tumor Weight (X ± SD) (mouse sarcoma S180; Sample 400 mg/kg i.g. daily for 11 days, 12th day): 0.33 ± 0.10^b g | Indices of pancreas [2, 5]: 2.459 ± 0.799^ mg/10 g avoirdupois | Indices of thymus [2, 5]: 2.448 ± 0.603^a mg/10 g avoirdupois | Indices of pancreas [2, 6]: 3.506 ± 1.223^ mg/10 g avoirdupois | Indices of thymus [2, 6]: 3.307 ± 0.721^a mg/10 g avoirdupois | indices of immune organs after combined administration ([2]; mice treated by CTX, combined with Sample): these indices increased | effect on the indices of immune organs ([2]; normal mice, thymus and pancreas (P1,3>0.05)): no significant effect | Indices of pancreas [2, 7]: 4.541 ± 0.508^a mg/10 g avoirdupois | Indices of thymus [2, 7]: 3.617 ± 1.334^a mg/10 g avoirdupois

O=P1(N(CCCl)CCCl)NCCCO1 (centres unmarked) [CTX, cytoxan, reference compound]
HC50 (X ± SD) (serum hemolysinogenesis; CTX 25 mg/kg i.g. alone): 21.83 ± 4.29 | K (X ± SD), serum clearance index of carbon grain ([1]; CTX 25 mg/kg i.g. on day 1 and 6 alone): 0.0260 ± 0.0116 | Inhibition Rate (mouse sarcoma S180; CTX 25 mg/kg i.g. single dose on day 1): 71.82% | Tumor Weight (X ± SD) (mouse sarcoma S180; CTX 25 mg/kg i.g. single dose on day 1, 12th day): 0.31 ± 0.11^b g | Body Weight after treatment (X ± SD) (mouse sarcoma S180; S180 mice, CTX 25 mg/kg i.g. single dose on day 1): 25.6 ± 1.6 g | Indices of pancreas ([2]; CTX 25 mg/kg i.g. alone): 2.154 ± 1.189^ mg/10 g avoirdupois | Indices of thymus ([2]; CTX 25 mg/kg i.g. alone): 1.296 ± 0.665^ mg/10 g avoirdupois

CCC(C)CCCCCCCC/C=C/C(=O)O (centres unmarked) [Compound 1, 12-Methyl-2-tetradecenoic acid]
anti-inflammation function compared to common anti-inflammatory cream [3]: better anti-inflammation function | healing of ulcerous wound [3]: the ulcerous wound healed quickly | effect on focus of oral adnoma and tongue cancer [4]: the focus reduced, swelling disappeared
